The values that follow come from patent US9242933B2 (AbbVie Deutschland GmbH & Co. KG, priority 2007, dated 2016).

The target of this assay is T1, human mGlu2 receptor (Homo sapiens, UniProt Q14416).
T1 construct: expressed in transfected cells; host or cells: HEK293
Nature of the assay: FLIPR intracellular Ca2+ assay, potentiation of glutamate response in HEK293 clone expressing mGlu2 receptor, rGLAST and Galpha16. Particulars: 1 μM glutamate added ten minutes after test compound, HEK293 cells with human mGlu2, rGLAST, Galpha16, read-out: EC50 values of potentiation effect to glutamate. It is filed as cell-based. In a few lines:
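HEK293 cells stably expressing human mGlu2, rat GLAST and Gα16 were loaded with 2 µM Fluo-4 AM and intracellular Ca2+ read by FLIPR. Compound added alone (agonism), then with submaximal glutamate (e.g. 1 µM; potentiation). Background-subtracted peaks normalized to 100 µM glutamate response; EC50 from four-parameter fit.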

A word on the EC50: it is the midpoint of the concentration-response curve.

T1 sequence (Q14416 19-872): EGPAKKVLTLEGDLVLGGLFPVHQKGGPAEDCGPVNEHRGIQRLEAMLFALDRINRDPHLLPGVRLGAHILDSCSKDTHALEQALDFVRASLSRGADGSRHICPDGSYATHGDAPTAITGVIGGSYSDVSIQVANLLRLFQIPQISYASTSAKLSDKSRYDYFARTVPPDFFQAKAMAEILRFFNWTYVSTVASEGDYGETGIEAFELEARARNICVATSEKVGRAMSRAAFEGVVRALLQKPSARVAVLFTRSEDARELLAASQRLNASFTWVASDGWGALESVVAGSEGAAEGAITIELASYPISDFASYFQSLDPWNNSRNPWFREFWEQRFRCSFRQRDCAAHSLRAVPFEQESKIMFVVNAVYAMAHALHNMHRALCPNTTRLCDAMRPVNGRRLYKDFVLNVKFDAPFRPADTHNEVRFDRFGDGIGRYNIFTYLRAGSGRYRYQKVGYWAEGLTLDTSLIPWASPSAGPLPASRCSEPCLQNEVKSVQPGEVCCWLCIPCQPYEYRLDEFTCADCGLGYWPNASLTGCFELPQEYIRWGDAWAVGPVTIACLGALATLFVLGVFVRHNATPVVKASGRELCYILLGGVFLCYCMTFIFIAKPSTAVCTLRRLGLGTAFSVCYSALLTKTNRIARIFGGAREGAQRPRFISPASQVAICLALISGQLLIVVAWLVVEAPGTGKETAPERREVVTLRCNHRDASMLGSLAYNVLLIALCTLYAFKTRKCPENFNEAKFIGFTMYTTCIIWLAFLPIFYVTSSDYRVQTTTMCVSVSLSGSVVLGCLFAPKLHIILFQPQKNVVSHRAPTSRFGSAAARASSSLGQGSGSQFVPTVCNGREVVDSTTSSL

On to `CCCC(=O)c1ccc(OCc2c[nH]nc2-c2ccc(F)cc2)cc1` [Example 495, 1-{4-[3-(4-Fluorophenyl)-1H-pyrazol-4-ylmethoxy]-phenyl}-butan-1-one], for which the 50% effective concentration (EC50) was less than 1000 nM.
In the case of `CCN1Cc2cc(OCc3c[nH]nc3-c3ccccc3)ccc2C1=O` [Example 563, 2-Ethyl-5-(3-phenyl-1H-pyrazol-4-ylmethoxy)-2,3-dihydro-isoindol-1-one], the 50% effective concentration (EC50) was less than 1000 nM.
Then `CCCC(=O)c1ccc(NCc2c[nH]nc2-c2cccc(F)c2)cc1` [Example 511, 1-(4-{[3-(3-Fluorophenyl)-1H-pyrazol-4-ylmethyl]-amino}-phenyl)-butan-1-one], with less than 1000 nM; and `CCCC(=O)c1ccc(NCc2c(C)nn(C)c2Oc2ccc(Cl)cc2)cc1` [Example 49, 1-(4-{[5-(4-Chlorophenoxy)-1,3-dimethyl-1H-pyrazol-4-ylmethyl]amino}phenyl)butan-1-one], with 1000 to 10000 nM; and `CCCC(=O)c1ccc(NCc2c[nH]nc2-c2cccs2)cc1` [Example 40, 1-(4-{[3-(Thiophen-2-yl)-1H-pyrazol-4-ylmethyl]amino}phenyl)butan-1-one], with less than 1000 nM.
The figure for `CCCC(=O)c1ccc(NCc2c[nH]nc2-c2cc(F)cc(F)c2)cc1` [Example 213, 1-(4-{[3-(3,5-Difluorophenyl)-1H-pyrazol-4-ylmethyl]-amino}-phenyl)-butan-1-one] is less than 1000 nM; for `CCCC(=O)c1ccc(NCc2c[nH]nc2-c2ccc(OC)cc2)cc1` [Example 209, 1-(4-{[3-(4-Methoxy-phenyl)-1H-pyrazol-4-ylmethyl]-amino}-phenyl)-butan-1-one] it is less than 1000 nM.
Regarding `FC(F)(F)c1ccc(-c2n[nH]cc2CNc2cccc(Cl)n2)cc1` [Example 349, (6-Chloro-pyridin-2-yl)-[3-(4-trifluoromethyl-phenyl)-1H-pyrazol-4-ylmethyl]-amine], the EC50 is 1000 to 10000 nM.
Then `O=C1c2ccc(OCc3c[nH]nc3-c3cccc(C(F)(F)F)c3)cc2CN1CCBr` [Example 565, 2-(2-Bromo-ethyl)-5-[3-(3-trifluoromethyl-phenyl)-1H-pyrazol-4-ylmethoxy]-2,3-dihydro-isoindol-1-one], with less than 1000 nM; and `CCCCCC(=O)c1ccc(OCc2c[nH]nc2-c2ccc(C(F)(F)F)cc2)cc1` [Example 491, 1-{4-[3-(4-Trifluoromethyl-phenyl)-1H-pyrazol-4-ylmethoxy]-phenyl}-hexan-1-one], with less than 1000 nM; and `CCCC(=O)c1ccc(NCc2cnn(CC)c2C)cc1` [Example 55, 1-{4-[(1-Ethyl-5-methyl-1H-pyrazol-4-ylmethyl)amino]phenyl}butan-1-one], with 1000 to 10000 nM.
Then `CCCCN1Cc2cc(OCc3c[nH]nc3-c3cccc(F)c3)ccc2C1=O` [Example 550, 2-Butyl-5-[3-(3-fluorophenyl)-1H-pyrazol-4-ylmethoxy]-2,3-dihydro-isoindol-1-one], with less than 1000 nM; and `O=C1c2ccc(OCc3c[nH]nc3-c3ccc(C(F)(F)F)cc3)cc2CN1Cc1ccc(OC(F)(F)F)cc1` [Example 585, 2-(4-Trifluoromethoxy-benzyl)-5-[3-(4-trifluoromethyl-phenyl)-1H-pyrazol-4-ylmethoxy]-2,3-dihydro-isoindol-1-one], with less than 1000 nM; and `CCCC(=O)c1ccc(NCc2ccc(N(C)C)nc2)cc1` [Example 387, 1-{4-[(6-Dimethylamino-pyridin-3-ylmethyl)-amino]-phenyl}-butan-1-one], with 1000 to 10000 nM.
Then `CCCC(=O)c1ccc(NCc2c[nH]nc2-c2ccc(OC)c(OC)c2)cc1` [Example 218, 1-(4-{[3-(3,4-Dimethoxy-phenyl)-1H-pyrazol-4-ylmethyl]-amino}-phenyl)-butan-1-one], with less than 1000 nM; and `CCCC(=O)c1cccc(NCc2c[nH]nc2-c2ccc(C(F)(F)F)cc2)c1` [Example 503, 1-(3-{[3-(4-Trifluoromethyl-phenyl)-1H-pyrazol-4-ylmethyl]-amino}-phenyl)-butan-1-one], with 1000 to 10000 nM; and `CC(C)COc1ccc(NCc2c[nH]nc2C(C)(C)C)cc1` [Example 286, (3-tert-Butyl-1H-pyrazol-4-ylmethyl)-(4-isobutoxy-phenyl)-amine], with 1000 to 10000 nM.
Turning to `CCCC(=O)c1ccc(NCc2cc(-c3ccccc3F)no2)cc1` [Example 255, 1-(4-{[3-(2-Fluorophenyl)-isoxazol-5-ylmethyl]-amino}-phenyl)-butan-1-one], the EC50 was 1000 to 10000 nM.
Take `CCCC(=O)c1ccc(NCc2ccc(COC(C)=O)o2)cc1` [Example 23, Acetic acid 5-[(4-butyrylphenylamino)methyl]furan-2-ylmethyl ester]: the EC50 was 1000 to 10000 nM.
Then `CCCN1Cc2cc(OCc3c[nH]nc3-c3ccc(C(F)(F)F)cc3)ccc2C1=O` [Example 531, 2-Propyl-5-[3-(4-trifluoromethyl-phenyl)-1H-pyrazol-4-ylmethoxy]-2,3-dihydro-isoindol-1-one], with less than 1000 nM.
Take `CCCC(=O)c1ccc(NCc2cn(C)cn2)cc1` [Example 228, 1-{4-[(1-Methyl-1H-imidazol-4-ylmethyl)-amino]-phenyl}-butan-1-one]: the EC50 lay within 1000 to 10000 nM.
As for `CCCC(=O)c1ccc(NCc2cn(-c3ccccc3)nc2-c2ccncc2)cc1` [Example 214, 1-{4-[(1-Phenyl-3-pyridin-4-yl-1H-pyrazol-4-ylmethyl)-amino]-phenyl}-butan-1-one], the EC50 fell in the range of 1000 to 10000 nM.
Turning to `CCCC(=O)c1ccc(NCc2c(C(F)(F)F)nn(C)c2Cl)cc1` [Example 53, 1-(4-{[5-Chloro-1-methyl-3-(trifluoromethyl)-1H-pyrazol-4-yl]methylamino}phenyl)butan-1-one], the EC50 fell in the range of 1000 to 10000 nM.
For the compound `CC(C)(C)c1n[nH]cc1CNc1ccc(OCc2ccccn2)cc1` [Example 285, (3-tert-Butyl-1H-pyrazol-4-ylmethyl)-[4-(pyridin-2-ylmethoxy)-phenyl]-amine], the EC50 fell in the range of 1000 to 10000 nM.
Then `CCCC(=O)c1ccc(NCc2cn[nH]c2)cc1` [Example 68, 1-{4-[(1H-Pyrazol-4-ylmethyl)amino]phenyl}butan-1-one], with 1000 to 10000 nM; and `CCCC(=O)c1ccc(NCc2c[nH]nc2C(C)(C)C)cc1` [Example 77, 1-{4-[(3-tert-Butyl-1H-pyrazol-4-ylmethyl)amino]phenyl}butan-1-one], with less than 1000 nM; and `O=C1c2ccc(OCc3c[nH]nc3-c3cccc(F)c3)cc2CN1CC(F)(F)F` [Example 571, 5-[3-(3-Fluorophenyl)-1H-pyrazol-4-ylmethoxy]-2-(2,2,2-trifluoro-ethyl)-2,3-dihydro-isoindol-1-one], with less than 1000 nM.
As to `CCCC(=O)c1ccc(NCc2cnn(CCC)c2C)cc1` [Example 71], the EC50 is 1000 to 10000 nM.
The figure for `CCCN1Cc2cc(OCc3c[nH]nc3-c3ccc(Cl)cc3)ccc2C1=O` [Example 534, 5-[3-(4-Chloro-phenyl)-1H-pyrazol-4-ylmethoxy]-2-propyl-2,3-dihydro-isoindol-1-one] is less than 1000 nM.
With `CCCN1Cc2cc(NCc3c[nH]nc3-c3ccccc3)ccc2C1=O` [Example 581, 5-[(3-Phenyl-1H-pyrazol-4-ylmethyl)-amino]-2-propyl-2,3-dihydro-isoindol-1-one], the concentration giving a half-maximal response (EC50) was less than 1000 nM.
For `CS(=O)(=O)c1ccc(NCc2c[nH]nc2-c2ccc(C(F)(F)F)cc2)cc1` [Example 399, (4-Methanesulfonyl-phenyl)-[3-(4-trifluoromethyl-phenyl)-1H-pyrazol-4-ylmethyl]-amine], the EC50 fell in the range of 1000 to 10000 nM.
For `CN(C)C(=O)c1ccc(NCc2c[nH]nc2-c2cccc(C(F)(F)F)c2)cc1` [Example 433, N,N-Dimethyl-4-{[3-(3-trifluoromethyl-phenyl)-1H-pyrazol-4-ylmethyl]-amino}-benzamide], the EC50 is 1000 to 10000 nM.
The figure for `CCCC(=O)c1ccc(OCc2c[nH]nc2-c2cccc(F)c2)cc1` [Example 497, 1-{4-[3-(3-Fluorophenyl)-1H-pyrazol-4-ylmethoxy]-phenyl}-butan-1-one] is less than 1000 nM; for `CCCC(=O)c1ccc(NCc2cnc(Oc3ccc(OC)cc3)s2)cc1` [Example 260, 1-(4-{[2-(4-Methoxy-phenoxy)-thiazol-5-ylmethyl]-amino}-phenyl)-butan-1-one] it is 1000 to 10000 nM.
The figure for `CCCC(=O)c1ccc(NCc2c[nH]nc2-c2cccc(C(F)(F)F)c2)cc1OC` [Example 434, 1-(2-Methoxy-4-{[3-(3-trifluoromethyl-phenyl)-1H-pyrazol-4-ylmethyl]-amino}-phenyl)-butan-1-one] is less than 1000 nM; for `CC(=O)c1ccc(OCc2c[nH]nc2-c2ccc(C(F)(F)F)cc2)cc1F` [Example 485, 1-{2-Fluoro-4-[3-(4-trifluoromethyl-phenyl)-1H-pyrazol-4-ylmethoxy]-phenyl}-ethanone] it is 1000 to 10000 nM; for `CCN1Cc2cc(OCc3c[nH]nc3-c3ccc(Cl)cc3)ccc2C1=O` [Example 562, 5-[3-(4-Chloro-phenyl)-1H-pyrazol-4-ylmethoxy]-2-ethyl-2,3-dihydro-isoindol-1-one] it is less than 1000 nM.
For the compound `CCC(CC)Oc1cccc(NCc2c[nH]nc2-c2ccc(C(F)(F)F)cc2)c1` [Example 380, [3-(1-Ethyl-propoxy)-phenyl]-[3-(4-trifluoromethyl-phenyl)-1H-pyrazol-4-ylmethyl]-amine], the EC50 was in the range of 1000 to 10000 nM.
The figure for `CCCN1Cc2cc(NCc3n[nH]cc3-c3cccc(C(F)(F)F)c3)ccc2C1=O` [Example 582] is 1000 to 10000 nM; for `CCCC(=O)c1ccc(NCc2c[nH]nc2C(C)C)cc1` [Example 477, 1-{4-[(3-Isopropyl-1H-pyrazol-4-ylmethyl)-amino]-phenyl}-butan-1-one] it is 1000 to 10000 nM.
Turning to `O=C1c2ccc(OCc3c[nH]nc3-c3ccc(C(F)(F)F)cc3)cc2CN1CC1CCCCC1` [Example 586, 2-Cyclohexylmethyl-5-[3-(4-trifluoromethyl-phenyl)-1H-pyrazol-4-ylmethoxy]-2,3-dihydro-isoindol-1-one], the EC50 is less than 1000 nM.
